From ChEMBL document CHEMBL1141900, “Synthesis and antibacterial activity of C2-fluoro, C6-carbamate ketolides, and their C9-oximes” (2005)

How the values were obtained:
[1] = tested on: Mus musculus; test: Effective dose required to inhibit Staphylococcus aureus in mouse was determined after peroral administration of the compound; (8.1- 14); format: functional; conditions: po
[2] = tested on: Mus musculus; test: Effective dose required to inhibit Staphylococcus aureus in mouse was determined after sub cutaneous administration (0.5-1.4); format: functional

SMILES: CC[C@H]1OC(=O)C(C)C(=O)[C@H](C)[C@@H](O[C@@H]2O[C@H](C)C[C@H](N(C)C)[C@H]2O)[C@](C)(OC(=O)NC/C=C/c2ccc(-c3ncccn3)cc2)C[C@@H](C)C(=O)[C@H](C)[C@H]2NC(=O)O[C@@]21C (some centres not stated)
- ED50 [1]: 10 mg/kg
- ED50 [2]: 1 mg/kg
